# Data taken from patent publication US20250290117A1, “MOLECULAR PHENOTYPIC ANTIMICROBIAL SUSCEPTIBILITY TESTING” (priority 2024, published 2025).
# Experiments:
# [1] = tested on: pathogens of clinical samples; experiment: Molecular phenotypic antimicrobial susceptibility test of clinical samples, direct PCR without a separate DNA purification step (Table 6); assay type: cell-based
# Summary of the method: (§1)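 Semi-quantitative PCR measures growth after exposure, so sensitivity means prevented growth and resistance means allowed growth. Exposure lasts 12-16 hours at single or multiple breakpoint concentrations in Mueller Hinton Broth, with the inoculum at 0.5 McFarland.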
# [2] = tested on: E. coli; experiment: Molecular phenotypic antimicrobial susceptibility test with direct PCR (no extraction DNA purification step); assay type: cell-based, Escherichia coli; details: E. coli isolate JJ1887, direct PCR; for Ct at Sensitive Breakpoint: Ct at control (average) 12.832; for Molecular Antimicrobial Susceptibility Result: at sensitive breakpoint
# [3] = tested on: pathogens of clinical samples; experiment: Molecular phenotypic antimicrobial susceptibility test of clinical samples, extraction DNA purification step prior to PCR (Table 6); assay type: cell-based
# Summary of the method: as §1
# [4] = E. coli, clinical sample of r10-r24
# [5] = E. coli, clinical sample of r10-r24, Ct control avg 12.97
# [6] = E. coli, clinical sample of r158-r172
# [7] = E. coli, clinical sample of r158-r172, Ct control avg 12.894
# [8] = E. faecalis, clinical sample of r93-r99
# [9] = E. faecalis, clinical sample of r114-r120
# [10] = E. faecalis, clinical sample of r151-r157
# [11] = K. aerogenes, clinical sample of r136-r150
# [12] = K. aerogenes, clinical sample of r136-r150, Ct control avg 13.854
# [13] = K. pneumoniae, clinical sample of r121-r135
# [14] = K. pneumoniae, clinical sample of r121-r135, Ct control avg […]
# [15] = M. morganii, clinical sample of r55-r69
# [16] = M. morganii, clinical sample of r70-r84
# [17] = M. morganii, clinical sample of r70-r84, Ct control avg 11.677
# [18] = P. mirabilis, clinical sample of r25-r39
# [19] = P. mirabilis, clinical sample of r25-r39, Ct control avg 11.801
# [20] = P. mirabilis, clinical sample of r40-r54
# [21] = P. mirabilis, clinical sample of r40-r54, Ct control avg 10.06
# [22] = S. aureus, clinical sample of r85-r92
# [23] = E. coli, clinical sample of r10-r24, Ct Control Avg 18.112
# [24] = E. coli, clinical sample of r158-r172, Ct Control Avg 20.146
# [25] = K. aerogenes, clinical sample of r136-r150, Ct Control Avg 19.994
# [26] = K. pneumoniae, clinical sample of r121-r135, Ct Control Avg 24.272
# [27] = M. morganii, clinical sample of r70-r84, Ct Control Avg 27.053
# [28] = P. mirabilis, clinical sample of r25-r39, Ct Control Avg 26.064
# [29] = P. mirabilis, clinical sample of r40-r54, Ct Control Avg 26.987
compound,measurement,setting,value
C[C@H]1COc2c(N3CCN(C)CC3)c(F)cc3c(=O)c(C(=O)O)cn1c23 [Levofloxacin],Molecular Antibiotic Susceptibility Result,[1]; [4],Resistant
same,Ct,[1]; [5],12.289
same,Molecular Antibiotic Susceptibility Result,[1]; [6],Sensitive (Antimicrobial wells with pathogen load detected below the control wells (typically >2 cycle thresholds later) may be reported as Sensitive)
same,Ct,[1]; [7],29.603
same,Molecular Antibiotic Susceptibility Result,[1]; [8],Sensitive (Antimicrobial wells with pathogen load detected below the control wells (typically >2 cycle thresholds later) may be reported as Sensitive)
same,Ct,"[1]; E. faecalis, clinical sample of r93-r99, Ct control avg 22.011",33.342
same,Ct,"[1]; E. faecalis, clinical sample of r100-r106, Ct control avg 21.027",34.507
same,Ct,"[1]; E. faecalis, clinical sample of r107-r113, Ct control avg 20.529",28.107
same,Molecular Antibiotic Susceptibility Result,[1]; [9],Sensitive (Antimicrobial wells with pathogen load detected below the control wells (typically >2 cycle thresholds later) may be reported as Sensitive)
same,Ct,"[1]; E. faecalis, clinical sample of r114-r120, Ct control avg 20.909",30.072
same,Molecular Antibiotic Susceptibility Result,[1]; [10],Sensitive (Antimicrobial wells with pathogen load detected below the control wells (typically >2 cycle thresholds later) may be reported as Sensitive)
same,Ct,"[1]; E. faecalis, clinical sample of r151-r157, Ct control avg 18.551",35.719
same,Molecular Antibiotic Susceptibility Result,[1]; [11],Sensitive (Antimicrobial wells with pathogen load detected below the control wells (typically >2 cycle thresholds later) may be reported as Sensitive)
same,Ct,[1]; [12],33.354
same,Molecular Antibiotic Susceptibility Result,[1]; [13],Sensitive (Antimicrobial wells with pathogen load detected below the control wells (typically >2 cycle thresholds later) may be reported as Sensitive)
same,Ct,[1]; [14],32.085
same,Molecular Antibiotic Susceptibility Result,[1]; [15],Sensitive (Antimicrobial wells with pathogen load detected below the control wells (typically >2 cycle thresholds later) may be reported as Sensitive)
same,Molecular Antibiotic Susceptibility Result,[1]; [16],Sensitive (Antimicrobial wells with pathogen load detected below the control wells (typically >2 cycle thresholds later) may be reported as Sensitive)
same,Ct,[1]; [17],29.614
same,Molecular Antibiotic Susceptibility Result,[1]; [18],Sensitive (Antimicrobial wells with pathogen load detected below the control wells (typically >2 cycle thresholds later) may be reported as Sensitive)
same,Ct,[1]; [19],25.775
same,Molecular Antibiotic Susceptibility Result,[1]; [20],Sensitive (Antimicrobial wells with pathogen load detected below the control wells (typically >2 cycle thresholds later) may be reported as Sensitive)
same,Ct,[1]; [21],30.018
same,Molecular Antibiotic Susceptibility Result,[1]; [22],Resistant
same,Ct,"[1]; S. aureus, clinical sample of r85-r92, Ct control avg 20.309",16.32
same,Ct at Sensitive Breakpoint,[2],12.562
same,Molecular Antimicrobial Susceptibility Result,[2],Resistant
same,Molecular Antibiotic Susceptibility Result,[3]; [4],Resistant
same,Ct,[3]; [23],17.903
same,Molecular Antibiotic Susceptibility Result,[3]; [6],Sensitive (Antimicrobial wells with pathogen load detected below the control wells (typically >2 cycle thresholds later) may be reported as Sensitive)
same,Ct,[3]; [24],34.012
same,Molecular Antibiotic Susceptibility Result,[3]; [8],Sensitive (Antimicrobial wells with pathogen load detected below the control wells (typically >2 cycle thresholds later) may be reported as Sensitive)
same,Ct,"[3]; E. faecalis, clinical sample of r93-r99, Ct Control Avg 22.987",37.857
same,Ct,"[3]; E. faecalis, clinical sample of r100-r106, Ct Control Avg 23.073",38.337
same,Ct,"[3]; E. faecalis, clinical sample of r107-r113, Ct Control Avg 22.144",29.347
same,Molecular Antibiotic Susceptibility Result,[3]; [9],Sensitive (Antimicrobial wells with pathogen load detected below the control wells (typically >2 cycle thresholds later) may be reported as Sensitive)
same,Ct,"[3]; E. faecalis, clinical sample of r114-r120, Ct Control Avg 20.822",32.971
same,Molecular Antibiotic Susceptibility Result,[3]; [10],Sensitive (Antimicrobial wells with pathogen load detected below the control wells (typically >2 cycle thresholds later) may be reported as Sensitive)
same,Ct,"[3]; E. faecalis, clinical sample of r151-r157, Ct Control Avg 20.56",37.926
same,Molecular Antibiotic Susceptibility Result,[3]; [11],Sensitive (Antimicrobial wells with pathogen load detected below the control wells (typically >2 cycle thresholds later) may be reported as Sensitive)
same,Ct,[3]; [25],38.019
same,Molecular Antibiotic Susceptibility Result,[3]; [13],Sensitive (Antimicrobial wells with pathogen load detected below the control wells (typically >2 cycle thresholds later) may be reported as Sensitive)
same,Ct,[3]; [26],34.466
same,Molecular Antibiotic Susceptibility Result,[3]; [15],Sensitive (Antimicrobial wells with pathogen load detected below the control wells (typically >2 cycle thresholds later) may be reported as Sensitive)
same,Molecular Antibiotic Susceptibility Result,[3]; [16],Sensitive (Antimicrobial wells with pathogen load detected below the control wells (typically >2 cycle thresholds later) may be reported as Sensitive)
same,Ct,[3]; [27],37.67
same,Molecular Antibiotic Susceptibility Result,[3]; [18],Sensitive (Antimicrobial wells with pathogen load detected below the control wells (typically >2 cycle thresholds later) may be reported as Sensitive)
same,Ct,[3]; [28],33.029
same,Molecular Antibiotic Susceptibility Result,[3]; [20],Sensitive (Antimicrobial wells with pathogen load detected below the control wells (typically >2 cycle thresholds later) may be reported as Sensitive)
same,Ct,[3]; [29],33.384
same,Molecular Antibiotic Susceptibility Result,[3]; [22],Resistant
same,Ct,"[3]; S. aureus, clinical sample of r85-r92, Ct Control Avg 24.32",19.106
C[C@@H](O)[C@H]1C(=O)N2C(C(=O)O)=C(S[C@@H]3CN[C@H](C(=O)N(C)C)C3)[C@H](C)[C@H]12 [Meropenem],Molecular Antibiotic Susceptibility Result,[1]; [4],Sensitive (Antimicrobial wells with pathogen load detected below the control wells (typically >2 cycle thresholds later) may be reported as Sensitive)
same,Ct,[1]; [5],24.598
same,Molecular Antibiotic Susceptibility Result,[1]; [6],Sensitive (Antimicrobial wells with pathogen load detected below the control wells (typically >2 cycle thresholds later) may be reported as Sensitive)
same,Ct,[1]; [7],30.093
same,Molecular Antibiotic Susceptibility Result,[1]; [11],Sensitive (Antimicrobial wells with pathogen load detected below the control wells (typically >2 cycle thresholds later) may be reported as Sensitive)
same,Ct,[1]; [12],28.604
same,Molecular Antibiotic Susceptibility Result,[1]; [13],Sensitive (Antimicrobial wells with pathogen load detected below the control wells (typically >2 cycle thresholds later) may be reported as Sensitive)
same,Ct,[1]; [14],26.606
same,Molecular Antibiotic Susceptibility Result,[1]; [15],Sensitive (Antimicrobial wells with pathogen load detected below the control wells (typically >2 cycle thresholds later) may be reported as Sensitive)
same,Ct,"[1]; M. morganii, clinical sample of r55-r69, Ct control avg 12.09",30.024
same,Molecular Antibiotic Susceptibility Result,[1]; [16],Sensitive (Antimicrobial wells with pathogen load detected below the control wells (typically >2 cycle thresholds later) may be reported as Sensitive)
same,Ct,[1]; [17],29.381
same,Molecular Antibiotic Susceptibility Result,[1]; [18],Sensitive (Antimicrobial wells with pathogen load detected below the control wells (typically >2 cycle thresholds later) may be reported as Sensitive)
same,Ct,[1]; [19],32.513
same,Molecular Antibiotic Susceptibility Result,[1]; [20],Sensitive (Antimicrobial wells with pathogen load detected below the control wells (typically >2 cycle thresholds later) may be reported as Sensitive)
same,Ct,[1]; [21],31.805
same,Ct at Sensitive Breakpoint,[2],25.055
same,Molecular Antimicrobial Susceptibility Result,[2],Sensitive (Antimicrobial wells with pathogen load detected below the control wells (typically >2 cycle thresholds later) may be reported as Sensitive)
same,Molecular Antibiotic Susceptibility Result,[3]; [4],Sensitive (Antimicrobial wells with pathogen load detected below the control wells (typically >2 cycle thresholds later) may be reported as Sensitive)
same,Ct,[3]; [23],27.07
same,Molecular Antibiotic Susceptibility Result,[3]; [6],Sensitive (Antimicrobial wells with pathogen load detected below the control wells (typically >2 cycle thresholds later) may be reported as Sensitive)
same,Ct,[3]; [24],30.723
same,Molecular Antibiotic Susceptibility Result,[3]; [11],Sensitive (Antimicrobial wells with pathogen load detected below the control wells (typically >2 cycle thresholds later) may be reported as Sensitive)
same,Ct,[3]; [25],33.144
same,Molecular Antibiotic Susceptibility Result,[3]; [13],Sensitive (Antimicrobial wells with pathogen load detected below the control wells (typically >2 cycle thresholds later) may be reported as Sensitive)
same,Ct,[3]; [26],31.816
same,Molecular Antibiotic Susceptibility Result,[3]; [15],Sensitive (Antimicrobial wells with pathogen load detected below the control wells (typically >2 cycle thresholds later) may be reported as Sensitive)
same,Ct,"[3]; M. morganii, clinical sample of r55-r69, Ct Control Avg 28.86",37.898
same,Molecular Antibiotic Susceptibility Result,[3]; [16],Sensitive (Antimicrobial wells with pathogen load detected below the control wells (typically >2 cycle thresholds later) may be reported as Sensitive)
same,Ct,[3]; [27],36.672
same,Molecular Antibiotic Susceptibility Result,[3]; [18],Sensitive (Antimicrobial wells with pathogen load detected below the control wells (typically >2 cycle thresholds later) may be reported as Sensitive)
same,Ct,[3]; [28],34.223
same,Molecular Antibiotic Susceptibility Result,[3]; [20],Sensitive (Antimicrobial wells with pathogen load detected below the control wells (typically >2 cycle thresholds later) may be reported as Sensitive)
same,Ct,[3]; [29],35.503
